Like-named read-outs stand apart in the source and are kept apart here.
Key:
[1] = in vitro; conditions: human
Text: (§1) EC50 was generated using the HCV-Luc infection assay and IC50 using the ATPLite assay.
(§2) EC50 was generated using the HCV-Luc infection assay and TC50 using the ATPLite assay.
(§3) The cytotoxicity of the compounds was further evaluated in HepG2 cells and primary human hepatocytes.

[2] = tested on: HCV-Luc; experiment: HCV-Luc infection assay; assay type: cell-based; conditions: for EC50: Hepatitis C virus
[3] = tested on: HCV-Luc; experiment: HCV-Luc assay of (S)-CCZ combinations, MacSynergy II and CalcuSyn analysis; assay type: cell-based; conditions: for CalcuSyn CI value: (S)-CCZ in combination with the drug named; for antiviral effect of (S)-CCZ with the drug named: combination with (S)-CCZ
Experimental: Direct-acting antivirals, such as telaprevir and daclatasvir, were recently approved for therapy of hepatitis C. […] Using the MacSynergy II program based on Bliss independence model, three-dimensional surface plots were generated and log volume of synergism was calculated for each combination. The results were also analyzed with the CalcuSyn program, in which the combination indices were calculated.

[4] = tested on: Huh7.5.1 cells; experiment: in vitro; conditions: human
Text: as §1, §2, §3

Molecule | CC50 [1] [µM] | EC50 ([2]; Table 6, read-out: EC50) [µM] | other results
c1ccc(CCN(Cc2ccccc2)C2CCN(C3CCCC3)CC2)cc1 [Cyclopentyl, N-Benzyl-1-cyclopentyl-N-phenethylpiperidin-4-amine] | 15 | 0.48 | –
CCCN1CCC(N(CCc2ccccc2)Cc2ccccc2)CC1 [Propyl, N-Benzyl-N-phenethyl-1-propylpiperidin-4-amine] | 38.2 | 0.37 | –
CC(C)OC(=O)[C@H](C)N[P@](=O)(OC[C@H]1O[C@@H](n2ccc(=O)[nH]c2=O)[C@](C)(F)[C@@H]1O)Oc1ccccc1 [Sofosbuvir] | – | – | CalcuSyn CI value [3]: 0.362 ± 0.075; antiviral effect of (S)-CCZ with the drug named [3]: highly synergistic
COc1ccccc1CN1CCC(N(CCc2ccccc2)Cc2ccccc2)CC1 [2-Methoxybenzyl, N-Benzyl-1-(2-methoxybenzyl)-N-phenethylpiperidin-4-amine] | 15.2 | – | EC50 [2]: 0.64 µM
NC(=O)c1ncn([C@@H]2O[C@H](CO)[C@@H](O)[C@H]2O)n1 [Ribavirin] | – | – | CalcuSyn CI value [3]: 0.630 ± 0.106; antiviral effect of (S)-CCZ with the drug named [3]: highly synergistic
Fc1ccc(CN2CCC(N(CCc3ccccc3)Cc3ccccc3)CC2)cc1 [4-Fluorobenzyl, N-Benzyl-1-(4-fluorobenzyl)-N-phenethylpiperidin-4-amine] | 56.3 | – | EC50 [2]: 9.6 µM
c1ccc(CCN(Cc2ccccc2)C2CCN(Cc3ccccc3)CC2)cc1 [Benzyl, N,1-dibenzyl-N-phenethylpiperidin-4-amine] | 30.9 | 0.32 | –
Clc1ccc(CN2CCC(N(CCc3ccccc3)Cc3ccccc3)CC2)cc1 [4-Chlorobenzyl, N-Benzyl-1-(4-chlorobenzyl)-N-phenethylpiperidin-4-amine] | > 100 | 9.24 | –
c1ccc(CCN(Cc2ccccc2)C2CCN(C3CCCCC3)CC2)cc1 [Cyclohexyl, N-Benzyl-1-cyclohexyl-N-phenethylpiperidin-4-amine] | 33.8 | 1.5 | –
CN1CCC(N(CCc2ccccc2)Cc2ccccc2)CC1 [Me, N-Benzyl-1-methyl-N-phenethylpiperidin-4-amine] | 41.1 | 0.92 | –
CCN1CCN([C@@H](c2ccccc2)c2ccc(Cl)cc2)CC1 [Et (S), (S)-1-((4-Chlorophenyl)(phenyl)methyl)-4-ethylpiperazine] | 40 ± 1.1 | – | CC50 [4]: 40 ± 1.1 µM; EC50 ([2]; Table 3, read-out: EC50): 0.02 ± 0.002 µM
Ic1ccc(CN2CCC(N(CCc3ccccc3)Cc3ccccc3)CC2)cc1 [Compound 4-Iodobenzyl, N-Benzyl-1-(4-iodobenzyl)-N-phenethylpiperidin-4-amine] | > 100 | 2.98 | –
CCC[C@H](NC(=O)[C@@H]1[C@H]2CCC[C@H]2CN1C(=O)[C@@H](NC(=O)[C@@H](NC(=O)c1cnccn1)C1CCCCC1)C(C)(C)C)C(=O)C(=O)NC1CC1 [Telaprevir] | – | – | CalcuSyn CI value [3]: 0.426 ± 0.138
CC(C)(C)NC(=O)N[C@H](C(=O)N1C[C@H]2[C@@H]([C@H]1C(=O)NC(CC1CCC1)C(=O)C(N)=O)C2(C)C)C(C)(C)C (stereo partly shown) [Boceprevir] | – | – | CalcuSyn CI value [3]: 0.691 ± 0.114
c1ccc(CCN2CCC(N(CCc3ccccc3)Cc3ccccc3)CC2)cc1 [2-Phenylethyl, N-Benzyl-N,1-diphenethylpiperidin-4-amine] | > 100 | 16.2 | –
COC(=O)c1ccc(CN2CCC(N(CCc3ccccc3)Cc3ccccc3)CC2)cc1 [4-Methoxycarbonylbenzyl, Methyl 4-((4-(benzyl(phenethyl)amino)piperidin-1-yl)methyl)benzoate] | > 100 | 14 | –
CC(=O)N1CCC(N(CCc2ccccc2)Cc2ccccc2)CC1 [Acetyl, 1-(4-(Benzyl(phenethyl)amino)piperidin-1-yl)ethanone] | 74.5 | > 31.6 | –

Molecule | CC50 [1] [µM] | EC50 ([2]; Table 6, read-out: EC50) [µM] | other results
NCCOCCOCCOCCOCCN1CCN(C(c2ccccc2)c2ccc(Cl)cc2)CC1 (racemic) [(CH2CH2O)4CH2CH2NH2 (R,S), 14-(4-((4-Chlorophenyl)(phenyl)methyl)piperazin-1-yl)-3,6,9,12-tetraoxatetradecan-1-amine] | 12.2 ± 0.8 | – | CC50 [4]: 12.2 ± 0.8 µM; EC50 ([2]; Table 3, read-out: EC50): 0.004 ± 0.0022 µM; Selective Index ([2]; Table 3): 3050; Selective Index ([2]; Table 4): 3050
COc1ccc(CN2CCC(N(CCc3ccccc3)Cc3ccccc3)CC2)cc1 [4-Methoxybenzyl, N-Benzyl-1-(4-methoxybenzyl)-N-phenethylpiperidin-4-amine] | 27.8 | – | EC50 [2]: 4.35 µM
c1ccc(CCN(Cc2ccccc2)C2CCN(Cc3ccc4c(c3)OCCO4)CC2)cc1 [N-Benzyl-1-((2,3-dihydrobenzo[b][1,4]dioxin-6-yl)methyl)-N-phenethylpiperidin-4-amine] | 36.6 | 2.78 | –
Brc1ccc(CN2CCC(N(CCc3ccccc3)Cc3ccccc3)CC2)cc1 [4-Bromobenzyl, N-Benzyl-1-(4-bromobenzyl)-N-phenethylpiperidin-4-amine] | > 100 | 4.33 | –
c1ccc(CCN(Cc2ccccc2)C2CCN(Cc3ccc(-c4ccccc4)cc3)CC2)cc1 [4-Phenylbenzyl, 1-([1,1′-Biphenyl]-4-ylmethyl)-N-benzyl-N-phenethylpiperidin-4-amine] | > 100 | 12.2 | –
c1ccc(CCN(Cc2ccccc2)C2CCNCC2)cc1 [H, N-Benzyl-N-phenethylpiperidin-4-amine] | 23.5 | 0.12 | –
COC(=O)N[C@H](C(=O)N1CCC[C@H]1c1nc(-c2ccc(-c3ccc(-c4c[nH]c([C@@H]5CCCN5C(=O)[C@@H](NC(=O)OC)C(C)C)n4)cc3)cc2)c[nH]1)C(C)C [Daclataivir] | – | – | CalcuSyn CI value [3]: 0.427 ± 0.142
O=[S+]([O-])(c1ccccc1)N1CCC(N(CCc2ccccc2)Cc2ccccc2)CC1 [Phenylsulfonyl, N-Benzyl-N-phenethyl-1-(phenylsulfonyl)piperidin-4-amine] | > 100 | > 32.6 | –
CC(C)CN1CCC(N(CCc2ccccc2)Cc2ccccc2)CC1 [Isobutyl, N-Benzyl-1-isobutyl-N-phenethylpiperidin-4-amine] | 37.6 | 4.76 | –
[2H]C([2H])([2H])CN1CCC(N(CCc2ccccc2)Cc2ccccc2)CC1 [CD3CH2—, N-Benzyl-1-ethyl(2,2,2-d3)-N-phenethylpiperidin-4-amine] | 50.8 | 2.37 | –
IFN-α | – | – | CalcuSyn CI value [3]: 0.609 ± 0.128; antiviral effect of (S)-CCZ with the drug named [3]: highly synergistic
CC(C)N1CCC(N(CCc2ccccc2)Cc2ccccc2)CC1 [Isopropyl, N-Benzyl-1-isopropyl-N-phenethylpiperidin-4-amine] | 37.6 | 0.94 | –
O=C(c1ccccc1)N1CCC(N(CCc2ccccc2)Cc2ccccc2)CC1 [Benzoyl, (4-(Benzyl(phenethyl)amino)piperidin-1-yl)(phenyl)methanone] | 94 | 24.8 | –
[2H]C([2H])([2H])N1CCC(N(CCc2ccccc2)Cc2ccccc2)CC1 [CD3—, N-Benzyl-1-methyl(d3)-N-phenethylpiperidin-4-amine] | 100 | 7.95 | –
CCCCN1CCC(N(CCc2ccccc2)Cc2ccccc2)CC1 [Butyl, N-Benzyl-1-butyl-N-phenethylpiperidin-4-amine] | 17.9 | 1.55 | –
Cc1ccc(CN2CCC(N(CCc3ccccc3)Cc3ccccc3)CC2)cc1 [4-Methylbenzyl, N-Benzyl-1-(4-methylbenzyl)-N-phenethylpiperidin-4-amine] | 40.3 | 0.74 | –
